Experimental data reported in US12247010B2, “Tubulin inhibitors” (LIN BIOSCIENCE PTY LTD., priority 2017, dated 2025).

Columns and labels:
U87MG cells = test: Cytotoxicity assay (cell viability, CellTiter 96 Aqueous MTS); type: cell-based; conditions: Homo sapiens, U-87 MG, 72 h, 72 hours incubation, starting concentration 50 uM, 9 point half log dilution, average where tested repeatedly
Method in brief: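 U87MG cells plated at 7×10^3 cells/well overnight, then treated 72 h with 9-point half-log dilutions from a 50 uM starting concentration. Viability measured with CellTiter 96 Aqueous MTS; IC50 calculated from viability.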

tubulin = test: Tubulin polymerization assay (Cytoskeleton, Inc. inhibitor screening protocol); type: biochemical; conditions: 3 μM, 37C, compared to DMSO control
Method: Example 4. Tubulin Polymerization Assay
Compounds described herein were tested in a tubulin polymerization inhibition assay using the general manufacturer's protocol for inhibitor screening (Cytoskeleton, Inc. BK01 IP). DMSO was used as a negative control, and vinblastine was tested as a positive control. All compounds were tested at a concentration of 3 μM, and incubation was carried out at 37C for 60 minutes. Results were calculated as a percent inhibition (compared to DMSO control) after 60 min of incubation, the results of which are shown in Table 3.

**Q.** `Cc1ncccc1C(=O)NCCCc1ccc(-c2ccccc2F)cc1` [Compound 81, N-(3-(2′-fluoro-[1,1′-biphenyl]-4-yl)propyl)-2-methylnicotinamide] was tested. Which IC50 (U87MG cells) did it give?
**A.** < 500 nM

**Q.** And the “% Tubulin Polymerization at 60 min” value (tubulin)?
**A.** A (A is < 20%)

**Q.** Which IC50 (U87MG cells) does the source give for `Nc1ncc(C(=O)NCCCc2ccc(-c3ccccc3F)cc2)cn1` [Compound 96] here?
**A.** < 500 nM

**Q.** What about the “% Tubulin Polymerization at 60 min” value (tubulin) of the same molecule?
**A.** A (A is < 20%)

**Q.** How did the IC50 (U87MG cells) turn out when `COc1ccc(CC(=O)NCCCc2ccc(-c3ccccc3F)cc2)cc1` [Compound 101, N-(3-(2′-fluoro-[1,1′-biphenyl]-4-yl)propyl)-2-(4-methoxyphenyl)acetamide] was run?
**A.** < 500 nM

**Q.** What about the “% Tubulin Polymerization at 60 min” value (tubulin) of the same molecule?
**A.** C (C is 41-60%)

**Q.** `COc1ccc(CNC(=O)OCCc2ccc(-c3ccccc3F)cc2)cc1` [Compound 273, 2-(2′-fluoro-[1,1′-biphenyl]-4-yl)ethyl (4-methoxybenzyl)carbamate] was tested. Which IC50 (U87MG cells) did it give?
**A.** > 5000 nM

**Q.** With `Cc1ccc(NC(=O)OCCc2ccc(-c3ccccc3F)cc2)cn1` [Compound 274, 2-(2′-fluoro-[1,1′-biphenyl]-4-yl)ethyl (6-methylpyridin-3-yl)carbamate] as the molecule, how does the IC50 (U87MG cells) read?
**A.** > 5000 nM

**Q.** With `COc1cccc(-c2ccc(CC(C)(C)CNC(=O)c3ccc(C)nc3)cc2)c1F` [Compound 276, N-(3-(2′-fluoro-3′-methoxy-[1,1′-biphenyl]-4-yl)-2,2-dimethylpropyl)-6-methylnicotinamide] as the molecule, how does the IC50 (U87MG cells) read?
**A.** 1000 to 5000 nM

**Q.** Which IC50 (U87MG cells) does the source give for `Cc1ccc(C(=O)NCC(C)(C)Cc2ccc(-c3ccc4c(cnn4C)c3)cc2)cn1` [Compound 277, N-(2,2-dimethyl-3-(4-(1-methyl-1H-indazol-5-yl)phenyl)propyl)-6-methylnicotinamide] here?
**A.** 501 to 1000 nM

**Q.** With `O=C(Nc1cccnc1)N1CCN(c2ccc(-c3ccccc3F)cc2)CC1` [Compound 278, 4-(2′-fluoro-[1,1′-biphenyl]-4-yl)-N-(pyridin-3-yl)piperazine-1-carboxamide] as the molecule, how does the IC50 (U87MG cells) read?
**A.** 1000 to 5000 nM

**Q.** How did the IC50 (U87MG cells) turn out when `Cc1ccc(NC(=O)N2CCN(c3ccc(-c4ccccc4F)cc3)CC2)cn1` [Compound 279, 4-(2′-fluoro-[1,1′-biphenyl]-4-yl)-N-(6-methylpyridin-3-yl)piperazine-1-carboxamide] was run?
**A.** 501 to 1000 nM

**Q.** How did the IC50 (U87MG cells) turn out when `O=C(Nc1cn[nH]c1)N1CCN(c2ccc(-c3ccccc3F)cc2)CC1` [Compound 281, 4-(2′-fluoro-[1,1′-biphenyl]-4-yl)-N-(1H-pyrazol-4-yl)piperazine-1-carboxamide] was run?
**A.** > 5000 nM

**Q.** `Cc1ccc(C(=O)NCCOc2ccc(-c3ccccc3F)cc2)cn1` [Compound 282, N-(2-((2′-fluoro-[1,1′-biphenyl]-4-yl)oxy)ethyl)-6-methylnicotinamide] was tested. Which IC50 (U87MG cells) did it give?
**A.** > 5000 nM

**Q.** Which IC50 (U87MG cells) does the source give for `O=C(Cc1ccc(F)cc1)NCCCc1ccc(-c2ccccc2F)cc1` [Compound 284, N-(3-(2′-fluoro-[1,1′-biphenyl]-4-yl)propyl)-2-(4-fluorophenyl)acetamide] here?
**A.** < 500 nM

**Q.** Which IC50 (U87MG cells) does the source give for `Cc1oncc1C(=O)NCCCc1ccc(-c2ccccc2F)cc1` [Compound 285, N-(3-(2′-fluoro-[1,1′-biphenyl]-4-yl)propyl)-5-methylisoxazole-4-carboxamide] here?
**A.** > 5000 nM

**Q.** With `Cc1cc2ncc(C(=O)NCCCc3ccc(-c4ccccc4F)cc3)cn2n1` [Compound 286, N-(3-(2′-fluoro-[1,1′-biphenyl]-4-yl)propyl)-2-methylpyrazolo[1,5-a]pyrimidine-6-carboxamide] as the molecule, how does the IC50 (U87MG cells) read?
**A.** < 500 nM

**Q.** With `Cc1ncoc1C(=O)NCCCc1ccc(-c2ccccc2F)cc1` [Compound 290, N-(3-(2′-fluoro-[1,1′-biphenyl]-4-yl)propyl)-4-methyloxazole-5-carboxamide] as the molecule, how does the IC50 (U87MG cells) read?
**A.** > 5000 nM

**Q.** How did the IC50 (U87MG cells) turn out when `COc1ncccc1C(=O)NCCCc1ccc(-c2ccccc2F)cc1` [Compound 292, N-(3-(2′-fluoro-[1,1′-biphenyl]-4-yl)propyl)-2-methoxynicotinamide] was run?
**A.** > 5000 nM

**Q.** Which IC50 (U87MG cells) does the source give for `O=C(Cc1ccc2c(c1)OCCO2)NCCCc1ccc(-c2ccccc2F)cc1` [Compound 293, 2-(2,3-dihydrobenzo[b][1,4]dioxin-6-yl)-N-(3-(2′-fluoro-[1,1′-biphenyl]-4-yl)propyl)acetamide] here?
**A.** > 5000 nM

**Q.** For `Cn1ccc2cc(-c3ccc(CCCC(=O)Nc4cccnc4)cc3)cnc21` [Compound 294, 4-(4-(1-methyl-1H-pyrrolo[2,3-b]pyridin-5-yl)phenyl)-N-(pyridin-3-yl)butanamide], which IC50 (U87MG cells) is on record?
**A.** 501 to 1000 nM

**Q.** With `O=C(CCCc1ccc(-c2c[nH]c3ncccc23)cc1)Nc1cccnc1` [Compound 295, 4-(4-(1H-pyrrolo[2,3-b]pyridin-3-yl)phenyl)-N-(pyridin-3-yl)butanamide] as the molecule, how does the IC50 (U87MG cells) read?
**A.** 1000 to 5000 nM

**Q.** With `Cn1cnc2cc(-c3ccc(CCCC(=O)Nc4cccnc4)cc3)ccc21` [Compound 296, 4-(4-(1-methyl-1H-benzo [d]imidazol-5-yl)phenyl)-N-(pyridin-3-yl)butanamide] as the molecule, how does the IC50 (U87MG cells) read?
**A.** < 500 nM

**Q.** For `Cc1nc2cc(-c3ccc(CCCC(=O)Nc4cccnc4)cc3)ccc2n1C` [Compound 297, 4-(4-(1,2-dimethyl-1H-benzo[d]imidazol-5-yl)phenyl)-N-(pyridin-3-yl)butanamide], which IC50 (U87MG cells) is on record?
**A.** < 500 nM

**Q.** `Cn1cnc2ccc(-c3ccc(CCCC(=O)Nc4cccnc4)cc3)cc2c1=O` [Compound 299, 4-(4-(3-methyl-4-oxo-3,4-dihydroquinazolin-6-yl)phenyl)-N-(pyridin-3-yl)butanamide] was tested. Which IC50 (U87MG cells) did it give?
**A.** > 5000 nM

**Q.** For `Cc1cc(-c2ccc(CCCC(=O)Nc3cccnc3)cc2)cc2cn[nH]c12` [Compound 301, 4-(4-(7-methyl-1H-indazol-5-yl)phenyl)-N-(pyridin-3-yl)butanamide], which IC50 (U87MG cells) is on record?
**A.** < 500 nM

**Q.** `Cc1cc2[nH]ncc2cc1-c1ccc(CCCC(=O)Nc2cccnc2)cc1` [Compound 302, 4-(4-(6-methyl-1H-indazol-5-yl)phenyl)-N-(pyridin-3-yl)butanamide] was tested. Which IC50 (U87MG cells) did it give?
**A.** 1000 to 5000 nM

**Q.** With `Cc1ccc(C(=O)NCC2(Cc3ccc(-c4ccc5c(cnn5C)c4)cc3)CC2)cn1` [Compound 303, 6-methyl-N-((1-(4-(1-methyl-1H-indazol-5-yl)benzyl)cyclopropyl)methyl) nicotinamide] as the molecule, how does the IC50 (U87MG cells) read?
**A.** > 5000 nM

**Q.** How did the IC50 (U87MG cells) turn out when `COc1cccc(-c2ccc(CCCNC(=O)c3cnc(C)s3)cc2)c1F` [Compound 304, N-(3-(2′-fluoro-3′-methoxy-[1,1′-biphenyl]-4-yl)propyl)-2-methylthiazole-5-carboxamide] was run?
**A.** < 500 nM

**Q.** How did the IC50 (U87MG cells) turn out when `Cc1ncc(C(=O)NCCCc2ccc(-c3ccc4c(cnn4C)c3)cc2)s1` [Compound 305, 2-methyl-N-(3-(4-(1-methyl-1H-indazol-5-yl)phenyl)propyl)thiazole-5-carboxamide] was run?
**A.** < 500 nM

**Q.** `O=C(NCCCc1ccc(-c2ccc3ncccc3c2)cc1)c1cncnc1` [Compound 306, N-(3-(4-(quinolin-6-yl)phenyl)propyl)pyrimidine-5-carboxamide] was tested. Which IC50 (U87MG cells) did it give?
**A.** < 500 nM

**Q.** How did the IC50 (U87MG cells) turn out when `O=C(NCCCc1ccc(-c2cnc3[nH]ccc3c2)cc1)c1cncnc1` [Compound 307, N-(3-(4-(1H-pyrrolo [2,3-b]pyridin-5-yl)phenyl)propyl)pyrimidine-5-carboxamide] was run?
**A.** < 500 nM

**Q.** For `Cc1ncc(C(=O)NCCCc2ccc(-c3ccc4[nH]ncc4c3C)cc2)s1` [Compound 308, 2-methyl-N-(3-(4-(4-methyl-1H-indazol-5-yl)phenyl)propyl)thiazole-5-carboxamide], which IC50 (U87MG cells) is on record?
**A.** < 500 nM

**Q.** `Cc1ncc(C(=O)NCCCc2ccc(-c3cnc4[nH]ccc4c3)cc2)s1` [Compound 309, N-(3-(4-(1H-pyrrolo[2,3-b]pyridin-5-yl)phenyl)propyl)-2-methylthiazole-5-carboxamide] was tested. Which IC50 (U87MG cells) did it give?
**A.** < 500 nM

**Q.** For `Cc1ncccc1C(=O)NCCCc1ccc(-c2ccc3[nH]ncc3c2C)cc1` [Compound 310, 2-methyl-N-(3-(4-(4-methyl-1H-indazol-5-yl)phenyl)propyl)nicotinamide], which IC50 (U87MG cells) is on record?
**A.** < 500 nM

**Q.** For `Cc1ncccc1C(=O)NCCCc1ccc(-c2cnc3[nH]ccc3c2)cc1` [Compound 311, N-(3-(4-(1H-pyrrolo[2,3-b]pyridin-5-yl)phenyl)propyl)-2-methylnicotinamide], which IC50 (U87MG cells) is on record?
**A.** < 500 nM

**Q.** With `Cc1ccc(C(=O)NCCCc2ccc(-c3ccc4c(c3)OCC(=O)N4)cc2)cn1` [Compound 312, 6-methyl-N-(3-(4-(3-oxo-3,4-dihydro-2H-benzo[b][1,4]oxazin-7-yl)phenyl)propyl)nicotinamide] as the molecule, how does the IC50 (U87MG cells) read?
**A.** < 500 nM

**Q.** `Cc1cc(C(=O)NCCCc2ccc(-c3ccc4c(c3)OCC(=O)N4)cc2)n(C)n1` [Compound 313, 1,3-dimethyl-N-(3-(4-(3-oxo-3,4-dihydro-2H-benzo[b][1,4]oxazin-7-yl)phenyl)propyl)-1H-pyrazole-5-carboxamide] was tested. Which IC50 (U87MG cells) did it give?
**A.** < 500 nM

**Q.** For `Cc1ncccc1C(=O)NCCCc1ccc(-c2ccc3c(c2)OCC(=O)N3)cc1` [Compound 314, 2-methyl-N-(3-(4-(3-oxo-3,4-dihydro-2H-benzo[b][1,4]oxazin-7-yl)phenyl)propyl)nicotinamide], which IC50 (U87MG cells) is on record?
**A.** < 500 nM

**Q.** For `Cc1ccc(C(=O)NCCCc2ccc(-c3ccc4[nH]c(=O)ccc4c3)cc2)cn1` [Compound 315, 6-methyl-N-(3-(4-(2-oxo-1,2-dihydroquinolin-6-yl)phenyl)propyl)nicotinamide], which IC50 (U87MG cells) is on record?
**A.** < 500 nM

**Q.** How did the IC50 (U87MG cells) turn out when `COc1ccc(CC(=O)NCCCc2ccc(-c3cnc4[nH]ccc4c3)cc2)cc1` [Compound 316, N-(3-(4-(1H-pyrrolo[2,3-b]pyridin-5-yl)phenyl)propyl)-2-(4-methoxyphenyl)acetamide] was run?
**A.** < 500 nM

**Q.** For `COc1cccc(-c2ccc(CCCNC(=O)c3cccnc3C)cc2)c1F` [Compound 317, N-(3-(2′-fluoro-3′-methoxy-[1,1′-biphenyl]-4-yl)propyl)-2-methylnicotinamide], which IC50 (U87MG cells) is on record?
**A.** < 500 nM

**Q.** Which “% Tubulin Polymerization at 60 min” value (tubulin) does the source give for `CC[C@]1(O)C[C@@H]2CN(CCc3c([nH]c4ccccc34)[C@@](C(=O)OC)(c3cc4c(cc3OC)N(C)[C@H]3[C@@](O)(C(=O)OC)[C@H](OC(C)=O)[C@]5(CC)C=CCN6CC[C@]43[C@@H]65)C2)C1` [Vinblastine, vinblastine, reference compound] here?
**A.** A (A is < 20%)
